Counter-ions that a name gives are not always drawn.
Columns and labels:
KRAS-G12D and SOS1 = molecular target: T1, KRAS-G12D and SOS1 (Homo sapiens, UniProt P01116, G12D); assay: Inhibition of KRAS-G12D/SOS1 binding (Cisbio binding kit, 665/615 ratio), Effect Embodiment A; conditions: read-out: GTP-KRAS-G12D:SOS1 IC50
T1 construct: purchased
Method in brief: (§1)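 Compounds underwent 3-fold dilution from their storage solutions (11 points), were transferred to assay wells in duplicate with DMSO held at 1% final, and were briefly centrifuged.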

KRAS_G12D and cRAF = molecular target: T2, KRAS_G12D and cRAF (Homo sapiens, UniProt P01116, G12D); assay: Inhibition of KRAS_G12D/cRAF binding (Cisbio binding kit, 665/615 ratio), Effect Embodiment B; conditions: read-out: GTP-KRAS-G12D:CRAF IC50
T2 construct: purchased
T2 sequence (P01116 1-188 isoform P01116-2 G12D): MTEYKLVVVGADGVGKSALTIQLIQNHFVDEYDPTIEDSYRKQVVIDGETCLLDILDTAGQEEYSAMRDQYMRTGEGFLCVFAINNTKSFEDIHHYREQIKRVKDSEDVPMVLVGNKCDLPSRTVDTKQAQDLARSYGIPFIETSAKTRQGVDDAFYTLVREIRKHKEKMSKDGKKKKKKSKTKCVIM
Method in brief: as §1

KRAS_WT and SOS1 = molecular target: T3, KRAS_WT and SOS1 (Homo sapiens, UniProt P01116); assay: Inhibition of KRAS_WT/SOS1 binding (Cisbio binding kit, 665/615 ratio), Effect Embodiment C; conditions: read-out: GTP-KRAS-WT:SOS1 IC50
T3 construct: purchased
T3 sequence (P01116 1-188 isoform P01116-2): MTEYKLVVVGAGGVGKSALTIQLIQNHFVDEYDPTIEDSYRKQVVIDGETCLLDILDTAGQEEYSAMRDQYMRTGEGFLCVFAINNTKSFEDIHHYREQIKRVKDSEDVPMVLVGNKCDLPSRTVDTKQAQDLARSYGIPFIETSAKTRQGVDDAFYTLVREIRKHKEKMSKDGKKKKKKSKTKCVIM
Method in brief: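 Compounds tested as 3-fold, 11-point dilutions in duplicate at 1% DMSO final against the KRAS_WT/SOS1 binding system. IC50 derived by nonlinear regression fit.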

T1 sequence (P01116 1-188 isoform P01116-2 G12D): as the sequence (P01116 1-188 isoform P01116-2 G12D) above

SMILES | IC50 (KRAS-G12D and SOS1) [nM] | IC50 (KRAS_G12D and cRAF) [nM] | IC50 (KRAS_WT and SOS1) [nM]
CN1CCC[C@H]1COc1nc(N2CC3CCC(C2)N3)c2cc(Cl)c(-c3c(F)c(O)cc4ccccc34)c(F)c2n1 (single isomer, unassigned) [Compound 195b, (S or R)-4-(4-((1R,5S)-3,8-diazabicyclo[3.2.1]octan-3-yl)-6-chloro-8-fluoro-2-((S)-1-methylpyrrolidin-2-yl)methoxy)quinazolin-7-yl)-3-fluoronaphthalen-2-ol formate] | 57.7 | 334 | 6490
CCN(CC)CCCOc1nc(N2CC3CCC(C2)N3)c2cc(Cl)c(-c3cc(O)cc4ccccc34)c(F)c2n1 (single isomer, unassigned) [Compound 53a, 4-((S or R)-4-((1R,5S)-3,8-diazabicyclo[3.2.1]octan-3-yl)-6-chloro-2-(3-(diethylamino)propoxy)-8-fluoroquinazolin-7-yl)naphthalen-2-ol] | 59.7 | 147 | 2170
C[C@@H](COc1nc(N2CC3CCC(C2)N3)c2cc(Cl)c(-c3cc(O)cc4ccc(F)cc34)c(F)c2n1)CN1C2CCC1COC2 (single isomer, unassigned) [Compound 234a, 4-((7S or 7R)-2-((2R)-3-(3-oxa-8-azabicyclo[3.2.1]octan-8-yl)-2-methylpropoxy)-4-((1R,5S)-3,8-diazabicyclo[3.2.1]octan-3-yl)-6-chloro-8-fluoroquinazolin-7-yl)-6-fluoronaphthalen-2-ol diformate] | 11.8 | 5.79 | 200
CN(C)CCCOc1nc(N2C[C@H]3CC[C@@H](C2)N3)c2cnc(-c3cc(O)cc4ccccc34)c(F)c2n1 [Compound 82, 4-(4-((1R,5S)-3,8-diazabicyclo[3.2.1]octan-3-yl)-2-(3-(dimethylamino)propoxy)-8-fluoropyrido[4,3-d]pyrimidin-7-yl)naphthalen-2-ol] | 21.6 | 102 | 1560
CCc1c(F)ccc2cc(O)cc(-c3c(F)cc4c(N5CC6CCC(C5)N6)nc(OCCCN5C6CCC5COC6)nc4c3F)c12 (single isomer, unassigned) [Compound 215a, 4-((7S or 7R)-2-(3-(3-oxa-8-azabicyclo[3.2.1]octan-8-yl)propoxy)-4-((1R,5S)-3,8-diazabicyclo[3.2.1]octan-3-yl)-6,8-difluoroquinazolin-7-yl)-5-ethyl-6-fluoronaphthalen-2-ol diformate] | 11.9 | 5.44 | 52.4
NCCCCOc1nc(N2CC3CCC(C2)N3)c2cc(Cl)c(-c3cc(O)cc4ccccc34)c(F)c2n1 (single isomer, unassigned) [Compound 95, 4-((S or R)-2-(4-aminobutoxy)-4-((1R,5S)-3,8-diazabicyclo[3.2.1]octan-3-yl)-6-chloro-8-fluoroquinazolin-7-yl)naphthalen-2-ol dihydrochloride] | 48.2 | 284 | 6660
N#Cc1cccc2cc(O)cc(-c3c(F)cc4c(N5CC6CCC(C5)N6)nc(OCCCN5C6CCC5COC6)nc4c3F)c12 (single isomer, unassigned) [Compound 278a, 8-((7S or 7R)-2-(3-(3-oxa-8-azabicyclo[3.2.1]octan-8-yl)propoxy)-4-((1R,5S)-3,8-diazabicyclo[3.2.1]octan-3-yl)-6,8-difluoroquinazolin-7-yl)-6-hydroxy-1-naphthonitrile diformate] | 17.6 | 38.6 | 122
CN1CCC[C@H]1COc1nc(N2CC3(C)CCC(C)(C2)N3)c2cc(Cl)c(-c3cc(O)cc4ccccc34)c(F)c2n1 (single isomer, unassigned) [Compound 194a, 4-((R or S)-6-chloro-4-((1R,5S)-1,5-dimethyl-3,8-diazabicyclo[3.2.1]octan-3-yl)-8-fluoro-2-(((S)-1-methylpyrrolidin-2-yl)methoxy)quinazolin-7-yl)naphthalen-2-ol diformate] | 27.9 | 155 | 205
C[C@@H](COc1nc(N2CC3CCC(C2)N3)c2cc(Cl)c(-c3cc(O)cc4ccccc34)c(F)c2n1)CN(C)C (single isomer, unassigned) [Compound 203, 4-((S or R)-4-((1R,5S)-3,8-diazabicyclo[3.2.1]octan-3-yl)-6-chloro-2-((R)-3-(dimethylamino)-2-methylpropoxy)-8-fluoroquinazolin-7-yl)naphthalen-2-ol diformate] | 19.8 | 33.9 | 893
Oc1cc(-c2c(Cl)cc3c(N4CC5CCC(C4)N5)nc(OCCN4CCCC(F)C4)nc3c2F)c2ccccc2c1 (single isomer, unassigned) [Compound 267a, 4-((R or S)-4-((1R,5S)-3,8-diazacyclo[3.2.1]octan-3-yl)-6-chloro-8-fluoro-2-(2-((S or R)-3-fluoropiperidin-1-yl)ethoxy)quinazolin-7-yl)naphthalen-2-ol formate] | 76.7 | 259 | 6340
Oc1cc(-c2c(Cl)cc3c(N4CC5CCC(C4)N5)nc(OCCCN4CC5CCC4CO5)nc3c2F)c2ccccc2c1 (single isomer, unassigned) [Compound 187b, (R or S)-4-(2-(3-((1R,4R or 1S,4S)-2-oxa-5-azabicyclo[2.2.2]octan-5-yl)propoxy)-4-((1R,5S)-3,8-diazabicyclo[3.2.1]octan-3-yl)-6-chloro-8-fluoroquinazolin-7-yl)naphthalen-2-ol diformate] | 27.7 | 115 | 1670
CO[C@@H]1C[C@@H](COc2nc(N3CC4CCC(C3)N4)c3cnc(-c4cc(O)cc5ccccc45)c(F)c3n2)N(C)C1 [Compound 134, 4-(4-((1R,5S)-3,8-diazabicyclo[3.2.1]octan-3-yl)-8-fluoro-2-((2S,4R)-4-methxoy-1-methylpyrrolidin-2-yl)methoxy)pyridinyl[4,3-d]pyrimidin-7-yl)naphthalen-2-ol diformate] | 17.9 | 26.2 | 498
Oc1cc(-c2c(Cl)cc3c(N4CC5CCC(C4)N5)nc(OCCCN4CCC5(CCOCC5)C4)nc3c2F)c2ccccc2c1 (single isomer, unassigned) [Compound 259, 4-((S or R)-2-(3-(8-oxa-2-azaspiro[4.5]decan-2-yl)propoxy)-4-((1R,5S)-3,8-diazacyclo[3.2.1]octan-3-yl)-6-chloro-8-fluoroquinazolin-7-yl)naphthalen-2-ol formate] | 25.3 | 146 | 1470
CN1CC(C)(COc2nc(N3CC4CCC(C3)N4)c3cc(Cl)c(-c4cc(O)cc5ccccc45)c(F)c3n2)C1 (single isomer, unassigned) [Compound 110, 4-((S or R)-4-((1R,5S)-3,8-diazacyclo[3.2.1]octan-3-yl)-6-chloro-2-((1,3-dimethylnonanetriacyl)methoxy)-8-fluoroquinazin-7-yl)naphthalen-2-ol ditrifluoroacetate] | 39.6 | 143 | 1530
C[C@@H](COc1nc(N2CC3CCC(C2)N3)c2cc(Cl)c(-c3cc(O)cc(Cl)c3C3CC3)c(F)c2n1)CN1C2CCC1COC2 (single isomer, unassigned) [Compound 227, 3-((7S or 7R)-2-((2R)-3-(3-oxa-8-azabicyclo[3.2.1]octan-8-yl)-2-methylpropoxy)-4-((1R,5S)-3,8-diazabicyclo[3.2.1]octan-3-yl)-6-chloro-8-fluoroquinazolin-7-yl)-5-chloro-4-cyclopropylphenol formate] | 16.7 | 23.4 | 593
Oc1cc(-c2c(Cl)cc3c(N4CC5CCC(C4)N5)nc(OCC45CCCN4CCC5)nc3c2F)c2ccccc2c1 (single isomer, unassigned) [Compound 199, 4-((R or S)-4-((1R,5S)-3,8-diazabicyclo[3.2.1]octan-3-yl)-6-chloro-8-fluoro-2-((tetrahydro-1H-pyrrolin-7a(5H)-yl)methoxy)quinazolin-7-yl)naphthalen-2-ol diformate] | 13.2 | 9 | 58.4
C[C@@H](COc1nc(N2CC3CCC(C2)N3)c2cc(Cl)c(-c3cc(O)cc4ccccc34)c(F)c2n1)CN1C[C@@H](C)O[C@@H](C)C1 (single isomer, unassigned) [Compound 205, 4-((S or R)-4-((1R,5S)-3,8-diazabicyclo[3.2.1]octan-3-yl)-6-chloro-2-((R)-3-((2S,6R)-2,6-dimethylmorpholinyl)-2-methylpropoxy)-8-fluoroquinazolin-7-yl)naphthalenol formate] | 11.6 | 13 | 505
Oc1cc(-c2c(Cl)cc3c(N4CC5CCC(C4)N5)nc(OCCN4CCCCC4)nc3c2F)c2ccccc2c1 (single isomer, unassigned) [Compound 114, 4-((S or R)-4-((1R,5S)-3,8-diazabicyclo[3.2.1]octan-3-yl)-6-chloro-8-fluoro-2-(2-(piperidin-1-yl)ethoxy)quinazolin-7-yl)naphthalen-2-ol dihydrochloride] | 37.2 | 100 | 4530
C#Cc1c(F)ccc2cc(O)cc(-c3c(Cl)cc4c(N5CC6CCC(C5)N6)nc(OCCCN5C6CCC5COC6)nc4c3F)c12 (single isomer, unassigned) [Compound 255b, (4R or 4S)-4-(2-(3-(3-oxa-8-azabicyclo[3.2.1]octan-8-yl)propoxy)-4-(1R,5S)-3,8-diazabicyclo[3.2.1]octan-3-yl)-6-chloro-8-fluoroquinazolin-7-yl)-5-ethynyl-6-fluoronaphthalen-2-ol diformate] | 4.32 | 13.2 | 75.6

From patent US20230365563A1, “QUINAZOLINE COMPOUND AND APPLICATION THEREOF” (SHANGHAI PHARMACEUTICALS HOLDING CO., LTD., priority 2020, published 2023)
